For 38 molecules, IC50 results are on record in patent US11274090B2, “P300/CBP HAT inhibitors” (Constellation Pharmaceuticals, Inc., priority 2018, dated 2022).

For this assay, the target named is p300 HAT domain (residues 1287-1666) (Homo sapiens (Human), UniProt Q09472). The assay is described as follows: p300 HAT SPA assay (scintillation proximity assay, acetylation of biotinylated H3(1-21) peptide). It is filed as biochemical. The settings on record: average of at least 2 replicate titrations. A digest of the protocol: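 Purified p300 HAT domain reaction transferred to streptavidin plates to capture biotinylated H3(1-21) peptide, incubated 1.5 hr at RT, and read by scintillation proximity. IC50 values derived from concentration-response data.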
Sequence of p300 HAT domain (residues 1287-1666) (Q09472 1287-1666): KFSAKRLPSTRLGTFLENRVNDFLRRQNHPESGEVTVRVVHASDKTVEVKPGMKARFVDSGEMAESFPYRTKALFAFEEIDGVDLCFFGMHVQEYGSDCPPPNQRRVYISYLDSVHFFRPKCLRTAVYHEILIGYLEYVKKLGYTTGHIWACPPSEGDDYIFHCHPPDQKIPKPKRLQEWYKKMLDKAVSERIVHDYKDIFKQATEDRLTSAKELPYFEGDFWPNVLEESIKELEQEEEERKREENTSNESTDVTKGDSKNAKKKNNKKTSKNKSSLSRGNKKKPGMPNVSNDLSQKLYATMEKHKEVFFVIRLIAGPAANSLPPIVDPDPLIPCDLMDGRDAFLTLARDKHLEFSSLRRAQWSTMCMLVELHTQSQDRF
Molecule `CC(Cc1ccc(Cl)cc1)NC(C(=O)Nc1ccc(-c2cnn(C)c2)cc1)c1ccccc1` (single isomer, unassigned) [3 Isomer 3] registered an IC50 above 5000 nM. As to `CC(CNC(C(=O)Nc1ccc(-c2cnn(C3CCC3)c2)cn1)c1ccccc1)c1ccc(C#N)cc1` (single isomer, unassigned) [52 Isomer 4], the IC50 is above 2000 nM. Consider `CC(CNC(C(=O)Nc1ccc(-c2cnn(CC(F)(F)F)c2)cn1)c1ccccc1)c1ccc(C#N)cc1` (single isomer, unassigned) [83 Isomer 4], for which the IC50 was 20.6 nM. In turn, `NS(=O)(=O)c1ccc(CCN[C@H](C(=O)N2CCc3ccccc32)c2ccccc2)cc1` (single isomer, unassigned) [153 Isomer 2] gave an IC50 of 1930 nM. This IC50 lies about 94-fold higher than the previous one. `Cc1ncc(-c2ccc(NC(=O)[C@H](NC[C@H](C)c3ccc(C#N)cc3)c3ccccc3)nc2)cn1` (single isomer, unassigned; isomer 4) [6 Isomer 4] had a concentration for half-maximal inhibition (IC50) of 20.9 nM. As for `CC(CNC(C(=O)Nc1ccc(-c2cnn(C(C)(C)C#N)c2)cn1)c1ccccc1)c1ccc(C#N)cc1` (single isomer, unassigned) [47 Isomer 2], the figure is 24.2 nM; as for `Cc1nc(NC(=O)C(NCC(C)c2ccc(C#N)cc2)c2ccccc2)ccc1-c1cnn(C)c1` (single isomer, unassigned) [39 Isomer 4], 304 nM; as for `CO[C@H]1CCN(c2ccc(NC(=O)C(NCC(C)c3ccc(C#N)cc3)c3ccccc3)nc2)C1` (single isomer, unassigned) [93 Isomer 3], 36 nM. `Cn1cc(-c2ccc(NC(=O)C(NCCc3ccc(C#N)cc3F)c3ccccc3)nc2)cn1` (single isomer, unassigned) [29 Isomer 1] displayed an IC50 of 22.9 nM. `CC(CNC(C(=O)Nc1ccc(-c2cnn(C)n2)cn1)c1ccccc1)c1ccc(C(F)(F)F)cc1` (single isomer, unassigned) [99 Isomer 1] had a 50% inhibitory concentration (IC50) of 869 nM. This IC50 lies about 38-fold higher than the previous one. The molecule `COC1CN(c2ccc(NC(=O)C(NCC(C)c3ccc(C#N)cc3)c3ccccc3)nc2)C1` (single isomer, unassigned) [32 Isomer 2] registered an IC50 of 18.8 nM. On to `C[C@H](CNC(C(=O)Nc1ccc(C2CC(=O)N(C)C2)cn1)c1ccccc1)c1ccc(C#N)cc1` (single isomer, unassigned) [109 Isomer 2], for which the half-maximal inhibitory concentration (IC50) was above 2000 nM. In turn, `CC1CN(c2ccc(NC(=O)C(NC[C@@H](C)c3ccc(C#N)cc3)c3ccccc3)nc2)CC(=O)N1C` (single isomer, unassigned) [124 Isomer 2] yielded an IC50 of 768 nM. “(S,R)-, (R,S)-, (S,S)-, (R,R)-(2-((2-(4-cyanophenyl)propyl)amino)-N-(5-(1-(difluoromethyl)-1H-pyrazol-4-yl)pyridin-2-yl)-2-phenylacetamide [20 Isomer 4]” returned a half-maximal inhibitory concentration (IC50) above 2000 nM.

In turn, `N#Cc1ccc(CCNC(C(=O)Nc2ccc(-c3cccnn3)cc2)c2ccccc2)cc1` (single isomer, unassigned) [12 Isomer 1] gave an IC50 above 5000 nM. As to `CN1CCN(c2ccc(NC(=O)C(NCCc3ccc(C#N)cc3)c3ccccc3)cn2)CC1` (single isomer, unassigned) [36 Isomer 1], the 50% inhibitory concentration (IC50) is 3270 nM. As for `Cn1cc(-c2ccc(NC(=O)C(NCCc3ccc(C#N)cc3Cl)c3ccccc3)nc2)cn1` (single isomer, unassigned) [51 Isomer 2], half-maximal inhibition (IC50) was put at 237 nM. `C[C@H](CNC(C(=O)Nc1ccc(C2CC(=O)N(C)C2)cn1)c1ccccc1)c1ccc(C#N)cc1` (single isomer, unassigned) [109 Isomer 1]: the IC50 is above 2000 nM. The molecule `Cc1ncc(C(C)CNC(C(=O)Nc2ccc(-c3cnn(C)c3)cn2)c2ccccc2)cn1` (single isomer, unassigned) [150 Isomer 2] registered an IC50 above 2000 nM. The figure for `Cn1cc(-c2ccc3c(c2)CCCN3C(=O)[C@@H](NCCc2ccc(C#N)cc2)c2ccccc2)cn1` (single isomer, unassigned) [151 Isomer 2] is above 5000 nM; for `CCN1CCN(c2ccc(NC(=O)C(NCCc3ccc(C#N)cc3)c3ccccc3)nc2)C1=O` (single isomer, unassigned) [76 Isomer 1] it is 88 nM. Regarding `N#Cc1ccc(CCNC(C(=O)Nc2ccc(N3CCCC3)nc2)c2ccccc2)cc1` (single isomer, unassigned) [35 Isomer 2], the IC50 was above 5000 nM. The molecule `CC(CNC(C(=O)Nc1ccc(-c2cnn(C)c2)cn1)c1ccccc1)c1ccc(C#N)c(F)c1` (single isomer, unassigned) [91 Isomer 1] yielded an IC50 of 473 nM. This lies in the sub-micromolar range.

In turn, `N#Cc1ccc(CCNC(C(=O)Nc2ccc(N3CCC(F)(F)CC3)cn2)c2ccccc2)cc1` (single isomer, unassigned) [38 Isomer 1] showed an IC50 of 206 nM. Molecule `CC(CNC(C(=O)Nc1ccc(-c2cnn(C(C)(C)C#N)c2)cn1)c1ccccc1)c1ccc(C#N)cc1` (single isomer, unassigned) [47 Isomer 4] registered an IC50 of 425 nM.

Molecule `CC(CNC(C(=O)Nc1ccc(-c2cnn(C)c2)cc1)c1ccccc1)c1ccc(C#N)cc1` (single isomer, unassigned) [82 Isomer 2] yielded an IC50 above 5000 nM. `CCN1CCN(c2ccc(NC(=O)C(NC[C@@H](C)c3ccc(C#N)cc3)c3ccccc3)nc2)CC1=O` (single isomer, unassigned) [102 Isomer 2] yielded a 50% inhibitory concentration (IC50) of 1550 nM. In the case of `Cc1cnc(-c2ccc(NC(=O)C(NCCc3ccc(C#N)cc3)c3ccccc3)cc2)[nH]1` (single isomer, unassigned) [11 Isomer 2], the IC50 was above 5000 nM. The figure for `CC(CNC(C(=O)Nc1ccc(N2CCN(C)C(=O)C2)cn1)c1ccccc1)c1ccc(C#N)cc1` (single isomer, unassigned) [101 Isomer 2] is 245 nM; for `C[C@H](CNC(C(=O)Nc1ccc(-c2ccn(C)c(=O)c2)cn1)c1ccccc1)c1ccc(C#N)cc1` (single isomer, unassigned) [105 Isomer 1] it is above 2000 nM; for `CC(CNC(C(=O)Nc1ccc(N2CCN(CC(F)(F)F)C(=O)C2)cn1)c1ccccc1)c1ccc(C#N)cc1` (single isomer, unassigned) [103 Isomer 2] it is 14.3 nM. In turn, `CC(CNC(C(=O)Nc1ccc(-c2cnn(C(F)F)c2)cn1)c1cnn(C)c1)c1ccc(C#N)cc1` (single isomer, unassigned) [128 Isomer 1] yielded an IC50 of 572 nM.

Take `CC1(C)CCN(c2ccc(NC(=O)C(NCCc3ccc(C#N)cc3)c3ccccc3)nc2)CC1` (single isomer, unassigned) [65 Isomer 2]: the IC50 is above 5000 nM. Take `C[C@H](CNC(C(=O)Nc1ccc(-c2cnn(CC(=O)N3CCCC3)c2)cn1)c1ccccc1)c1ccc(C#N)cc1` (single isomer, unassigned) [132 Isomer 1]: 932 nM corresponded to half-maximal inhibition (IC50). As for `CC(CNC(C(=O)Nc1ccc(-c2cnn(C)c2)cn1)c1ccccc1)c1ccc(C#N)c(F)c1` (single isomer, unassigned) [91 Isomer 4], the figure is 401 nM. Take `CC(CNC(C(=O)Nc1ccc(-c2cnn(C)c2)cc1)c1ccccc1)c1ccc(C#N)cc1` (single isomer, unassigned) [82 Isomer 1]: the IC50 is above 5000 nM. In turn, `N#Cc1ccc(CCNC(C(=O)Nc2ccn(C3CCOCC3)n2)c2ccccc2)cc1` (single isomer, unassigned) [30 Isomer 2] yielded an IC50 above 5000 nM. As for `Cc1cnc(-c2ccc(NC(=O)[C@@H](NCCc3ccc(Cl)cc3)c3ccccc3)cc2)[nH]1` (single isomer, unassigned) [9 Isomer 1], the figure is above 5000 nM.
